Reference: patent US20160067277A1, “USE OF XENON FOR LIMITING TUMOR CELL MIGRATION” (L'Air Liquide, Societe Anonyme pour I'Etude et …, priority 2013, published 2016)

Columns and labels:
Assay type in all cases: cell-based, human
MDA-MB-231 cells [1] = assay: MTT cell survival test; conditions: 1 h, 3 h, 5 h exposure to 70% xenon, MTT after 24 hours
Method: (§1) ER− and ER+ cancer cells (Estrogen Receptor) of a human adenocarcinoma (breast cancer), namely lines of MDA-MB-231 and MCF7 cells, were deposited on plates coated with collagen, where they adhered. These cell lines are available commercially.
(§2) The plates with the adhering cells were then placed in a sealed chamber, saturated, for 1 h, 3 h and 5 h, with: • either a control atmosphere (control), namely a gas mixture formed from 25% O2, 5% CO2 and 70% N2 (vol %); • or a test atmosphere based on xenon according to the invention, namely a gas mixture formed from 25% O2, 5% CO2 and 70% xenon (vol %).
(§3) Cell survival was determined after 24 hours, using an MTT (for methylthaizolyldiphenyl-tetrazolium bromide) test. This test is a conventional test for determining cellular viability. It is based on detection of living cells only, via the activity of their mitochondrial dehydrogenases, which makes it possible to evaluate cytotoxicity, proliferation and/or cellular activation.

MCF7 cells [2] = assay: MTT cell survival test; conditions: 1 h, 3 h, 5 h exposure to 70% xenon, MTT after 24 hours
Method: as §1, §2, §3

MDA-MB-231 cells [3] = assay: Oris cell migration test, fluorescence-labeled cells (RFU); conditions: for % cell migration relative to the control: MDA-MB-231 (ER-) cells, migration at 24 h, control atmosphere = 100%
Method: as §1, §2
(§4) For its part, cell migration at 24 h was determined after 24 hours, using fluorescence-labeled cells in the context of an Oris™ cell migration test. In this test, the labeled cells migrate into a target zone, where they are then quantified by a fluorescent plate reader for measuring the relative fluorescent units (RFU)).
(§5) More precisely, as already noted, several tests (3 or 4 tests) were conducted with the different gas atmospheres for different exposure times, and the results were expressed in the form of relative fluorescent units (RFU).
(§6) The migration of the cancer cells exposed to the atmosphere containing xenon was calculated as a percentage (%) relative to that of the cells exposed to the control atmosphere, i.e. exposed to an atmosphere without xenon (RFU fixed at 100%), and in the same conditions.
(§7) A two-way t-test for statistical analysis of the difference between the cell lines and the probability values P below 0.05 were considered significant.

MCF7 cells [4] = assay: as above; conditions: for % cell migration relative to the control: MCF7 (ER+) cells, migration at 24 h, control atmosphere = 100%
Method: as §1, §2, §4, §5, §6, §7

[5] = 1 h exposure to 25% O2, 5% CO2, 70% xenon
[6] = 3 h exposure to 25% O2, 5% CO2, 70% xenon
[7] = 5 h exposure to 25% O2, 5% CO2, 70% xenon

[Xe] [xenon]
effect on cell survival (MDA-MB-231 cells [1]): does not have a significant effect on cell survival
effect on cell survival (MCF7 cells [2]): does not have a significant effect on cell survival
effect on cell migration (in words) (MDA-MB-231 cells [3]; ER- MDA-MB-231 cells, starting from 1 hour of exposure, FIG. 1): significantly reduces the migration
% cell migration relative to the control (MDA-MB-231 cells [3]; [5]): 59 ± 13%
% cell migration relative to the control (MDA-MB-231 cells [3]; [6]): 64 ± 10%
% cell migration relative to the control (MDA-MB-231 cells [3]; [7]): 71 ± 9%
effect on cell migration (in words) (MCF7 cells [4]; ER+ MCF7 cells, starting from 1 hour of exposure, FIG. 2): significantly reduces the migration
% cell migration relative to the control (MCF7 cells [4]; [5]): 58 ± 12%
% cell migration relative to the control (MCF7 cells [4]; [6]): 65 ± 12%
% cell migration relative to the control (MCF7 cells [4]; [7]): 65 ± 12%
